Measured values from patent US9315847B2, “Automated transient image cytometry” (priority 2009, dated 2016).

Tested on: NRVMs
Test: Toxicity of the nuclear label to NRVMs during dye loading
Format: cell-based, rat
Conditions: 200 ng/ml in loading solution, 25 minutes
Protocol: Sensitivity to intracellular calcium kinetics is a desirable goal for automated calcium transient image cytometry because it is desirable to distinguish healthy contractile ESCMs from background non-contractile stem cells. […] The cells were maintained 48 to 72 hrs prior to scanning. On the day of scanning, the cells were incubated with a 3 μM solution of the acetyoxymethylester form of an intracellular calcium indicator (either Fluo-4 AM or Fluo-3 AM) in the base media for 25 minutes. The plasma membrane permeable to the acetoxymethylester forms of Fluo-3 and Fluo-4, which are modified intracellularly by esterases to an impermeable form. The loading solution was also supplemented with 200 ng/ml Hoechst 33342 to label DNA within the nuclei. This concentration of Hoechst provides adequate label of the nuclei and was non-toxic under these conditions. Thus, the labeling procedure introduced a green-fluorescence channel fluorescent calcium indicator into the cytoplasm of the NRVMs (Fluo-4) and a blue-fluorescence channel nuclear stain (Hoechst). The nuclear channel was used for autofocus at each well; additionally, images obtained of the nuclei provided information regarding cellular position that was helpful in assigning boundaries between cells in the segmentation procedure applied to the green-channel images. […]

CCOc1ccc(-c2nc3ccc(-c4nc5ccc(N6CCN(C)CC6)cc5[nH]4)cc3[nH]2)cc1 [Hoechst 33342]
toxicity of the nuclear label under loading conditions: non-toxic
